In patent US10000473B2, “Indazole derivatives useful as glucagon receptor antagonists” (Janssen Pharmaceutica NV, priority 2016, dated 2018):

Target: T1, human GCGR (Homo sapiens, UniProt P47871)
T1 construct: expressed in transfected cells; host or cells: HEK293 (hGluc-1HEK), pcDNA3.1, G418 selection
Experiment: Cellular functional assay, cAMP readout (glucagon-stimulated cAMP, LANCE TR-FRET)
Assay type: cell-based
Conditions: HEK293 cells stably expressing full-length human GCGR; glucagon 100 pM; IC50 converted to Ki; read-out: Inhibition of cAMP Ki
Protocol: IC50 Values in Cellular Functional Assays: cAMP Readout
Full-length human GCGR (Accession Number: NM000160) subcloned into pcDNA3.1 was stably transfected into HEK293 cells (hGluc-1HEK) and maintained under G418 selection (500 μg/mL). Cell cultures were maintained in DMEM/F12 media supplemented with 10% FBS and 1% GlutaMax™ Supplement (Available from ThermoFisher Scientific, catalog #35050061). Glucagon stimulated cAMP was quantified using LANCE technology as per manufacturer instructions. On the day of the experiment, spent media was removed and cells were washed with Hank's Buffered Saline solution (HBSS), and cells harvested with non-enzymatic cell dissociation solution, then washed once with HBSS. Cells were re-suspended in stimulation buffer at a concentration of 0.83×10^6 cells/ml and cAMP detection antibody was added. 6 μl/well of this solution was then dispensed in a 384 well plate (cell density 5000 cells/well). Test compound was serially diluted in DMSO and 50 nl were dispensed on top of the cell solution and allowed to incubate for 30 minutes. 6 μl of a 2× glucagon solution (final concentration in assay 100 pM) was then added and the reaction was terminated after 5 minutes with the addition of detection mix. The resulting mixture was incubated, protected from light for 1.5 h. cAMP levels were quantified by TR-FRET in an EnVision instrument against a known standard. IC50's were generated by using a non-linear regression macro driven in Excel and converted to Ki values.

T1 sequence (P47871 26-477): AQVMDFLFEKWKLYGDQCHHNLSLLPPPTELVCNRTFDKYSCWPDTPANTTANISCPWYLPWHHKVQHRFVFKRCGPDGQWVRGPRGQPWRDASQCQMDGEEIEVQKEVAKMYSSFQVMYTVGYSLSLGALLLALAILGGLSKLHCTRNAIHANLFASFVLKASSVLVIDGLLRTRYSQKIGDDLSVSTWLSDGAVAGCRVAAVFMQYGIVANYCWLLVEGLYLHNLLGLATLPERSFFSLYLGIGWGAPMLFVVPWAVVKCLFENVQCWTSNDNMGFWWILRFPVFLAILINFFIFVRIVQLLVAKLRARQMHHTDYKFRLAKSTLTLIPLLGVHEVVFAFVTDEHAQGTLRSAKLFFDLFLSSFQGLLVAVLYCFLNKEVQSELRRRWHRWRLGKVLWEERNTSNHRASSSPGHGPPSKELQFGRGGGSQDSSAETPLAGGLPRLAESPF

Row | Ki [nM] | SMILES
1 | 430 | CC(C)CC(c1ccc(C(=O)NCCC(=O)O)nc1)n1ncc2cc(-c3ccc(C(C)(C)C)cc3)ccc21 (stereo not drawn) [Compound #36, 3-(5-(1-(5-(4-(tert-Butyl)phenyl)-1H-indazol-1-yl)-3-methylbutyl)picolinamido)propanoic acid]
2 | 105 | CC(C)CC(c1ccc(C(=O)NCCC(=O)O)nc1)n1cc2cc(-c3ccc(C(F)(F)F)cc3Cl)ccc2n1 (stereo not drawn) [Compound #53, 3-(5-(1-(5-(2-Chloro-4-(trifluoromethyl)phenyl)-2H-indazol-2-yl)-3-methylbutyl)picolinamido)pr-opanoic acid]
3 | 55 | COc1c(-c2ccc(C(F)(F)F)cc2Cl)ccc2c1cnn2C(CC(C)C)c1ccc(C(=O)NCCC(=O)O)nc1 (stereo not drawn) [Compound #250, 3-(5-(1-(5-(2-Chloro-4-(trifluoromethyl)phenyl)-4-methoxy-1H-indazol-1-yl)-3-methylbutyl)picolinamido)propanoic acid]
4 | 1340 | Cc1cc(-c2ccc(C(C)(C)C)cc2)cc2cn(C(CC(C)C)c3ccc(C(=O)NCCC(=O)O)nc3)nc12 (stereo not drawn) [compound 108]
5 | 32 | Cc1cc(C(F)(F)F)ccc1-c1cc2cnn(C(CC(C)C)c3ccc(C(=O)NCCC(=O)O)nc3)c2cc1C (stereo not drawn) [Compound #214, 3-[[5-[3-Methyl-1-[6-methyl-5-[2-methyl-4-(trifluoromethyl)phenyl]indazol-1-yl]butyl]pyridine-2-carbonyl]amino]propanoic acid]
6 | 35 | COc1c(-c2ccc(C(F)(F)F)cc2Cl)ccc2nn([C@@H](CC(C)C)c3ccc(C(=O)NCCC(=O)O)cc3)cc12 [Compound #150, 3-[[4-[(1S)-1-[5-[2-Chloro-4-(trifluoromethyl)phenyl]-4-methoxy-indazol-2-yl]-3-methyl-butyl]benzoyl]amino]propanoic acid]
7 | > 5200 | CC(C)CC(c1ccc(C(=O)NCCC(=O)O)cc1)n1ncc2cc(-c3cnn(C)c3)ccc21 (stereo not drawn) [compound 164]
8 | 199 | Cc1cc(C(F)(F)F)ccc1-c1ccc2nn(C(CC(C)C)c3ccc(C(=O)NCCC(=O)O)cc3)cc2c1 (stereo not drawn) [Compound #189, 3-(4-(3-Methyl-1-(5-(2-methyl-4-(trifluoromethyl)phenyl)-2H-indazol-2-yl)butyl)benzamido)propanoic acid]
9 | 125 | Cc1cc(Cl)ccc1-c1cc2cn(C(CC(C)C)c3ccc(C(=O)NCCC(=O)O)nc3)nc2cc1Cl (stereo not drawn) [Compound #140, 3-[[5-[1-[6-Chloro-5-(4-chloro-2-methyl-phenyl)indazol-2-yl]-3-methyl-butyl]pyridine-2-carbonyl]amino]propanoic acid]
10 | 235 | O=C(O)CCNC(=O)c1ccc(C(CCC(F)(F)F)n2ncc3cc(-c4ccc(C(F)(F)F)cc4)ccc32)cc1 (stereo not drawn) [Compound #75, 3-[[4-[4,4,4-Trifluoro-1-[5-[4-(trifluoromethyl)phenyl]indazol-1-yl]butyl]benzoyl]amino]propanoic acid]
11 | 175 | O=C(O)CCNC(=O)c1ccc(C(CCC(F)(F)F)n2ncc3cc(-c4cc5ccccc5o4)ccc32)cc1 (stereo not drawn) [Compound #11, 3-[[4-[1-[5-(Benzofuran-2-yl)indazol-1-yl]-4,4,4-trifluorobutyl]benzoyl]amino]propanoic acid]
12 | 210 | O=C(O)CCNC(=O)c1ccc(C(CCC2CCC2)n2cc3cc(-c4ccc(C(F)(F)F)cc4)ccc3n2)cc1 (stereo not drawn) [Compound #215, 3-(4-(3-Cyclobutyl-1-(5-(4-(trifluoromethyl)phenyl)-2H-indazol-2-yl)propyl)benzamido)propanoic acid]
13 | 36 | Cc1cc(C(F)(F)F)ccc1-c1cc2cnn(C(CC(C)C)c3ccc(C(=O)NCCC(=O)O)cc3)c2cc1C (stereo not drawn) [Compound #93, 3-[[4-[3-Methyl-1-[6-methyl-5-[2-methyl-4-(trifluoromethyl)phenyl]indazol-1-yl]butyl]benzoyl]amino]propanoic acid]
14 | 130 | CCCCCC(c1ccc(C(=O)NCCC(=O)O)cc1)n1ncc2cc(-c3ccc(C(F)(F)F)cc3)ccc21 (stereo not drawn) [compound 89]
15 | 75 | CCCCCCC(c1ccc(C(=O)NCCC(=O)O)nc1)n1cc2cc(-c3ccc(Cl)cc3C)ccc2n1 (stereo not drawn) [compound 203]
16 | 145 | COc1c(-c2ccc(Cl)cc2C)ccc2c1cnn2C(CC(C)C)c1ccc(C(=O)NCCC(=O)O)cc1 (stereo not drawn) [Compound #99, 3-(4-(1-(5-(4-Chloro-2-methylphenyl)-4-methoxy-1H-indazol-1-yl)-3-methylbutyl)benzamido)propanoic acid]
17 | 60 | COc1c(-c2ccc(C(F)(F)F)cc2C)ccc2c1cnn2C(CC(C)C)c1ccc(C(=O)NCCC(=O)O)cc1 (stereo not drawn) [Compound #29, 3-(4-(1-(4-Methoxy-5-(2-methyl-4-(trifluoromethyl)phenyl)-1H-indazol-1-yl)-3-methylbutyl)benzamido)propanoic acid]

Continued, compound first:

Row | SMILES | Ki [nM]
18 | O=C(O)CCNC(=O)c1ccc(C(CC2CCC2)n2cc3cc(-c4ccc(C(F)(F)F)cc4)ccc3n2)cc1 (stereo not drawn) [compound 211] | 85
19 | CC(C)CC(c1ccc(C(=O)NCCC(=O)O)cc1)n1ncc2cc(-c3cc4cc(F)ccc4s3)ccc21 (stereo not drawn) [compound 172] | 260
20 | CCOc1c(-c2ccc(C(F)(F)F)cc2Cl)ccc2c1cnn2C(CC(C)C)c1ccc(C(=O)NCCC(=O)O)nc1 (stereo not drawn) [Compound #179, 3-(5-(1-(5-(2-Chloro-4-(trifluoromethyl)phenyl)-4-ethoxy-1H-indazol-1-yl)-3-methylbutyl)picolinamido)propanoic acid] | 24
21 | O=C(O)CCNC(=O)c1ccc(C(CC2CCCCC2)n2ncc3cc(-c4ccc(C(F)(F)F)cc4)ccc32)cc1 (stereo not drawn) [compound 131] | 310
22 | Cc1cc2c(cnn2C(CC(C)C)c2ccc(C(=O)NCCC(=O)O)cc2)cc1-c1cc2ccccc2s1 (stereo not drawn) [Compound #174, 3-[[4-[1-[5-(Benzothiophen-2-yl)-6-methyl-indazol-1-yl]-3-methyl-butyl]benzoyl]amino]propanoic acid] | 190
23 | CC(C)CC(c1ccc(C(=O)NCCC(=O)O)cc1)n1ncc2cc(-c3cccc4ccccc34)ccc21 (stereo not drawn) [compound 165] | 1350
24 | O=C(O)CCNC(=O)c1ccc(C(CC2CCCCC2)n2cc3cc(-c4ccc(C(F)(F)F)cc4)ccc3n2)cn1 (stereo not drawn) [compound 240] | 200
25 | Cc1cc(C(F)(F)F)ccc1-c1ccc2c(cnn2C(CCC(F)(F)F)c2ccc(C(=O)NCCC(=O)O)cc2)c1 (stereo not drawn) [Compound #44, 3-[[4-[4,4,4-Trifluoro-1-[5-[2-methyl-4-(trifluoromethyl)phenyl]indazol-1-yl]butyl]benzoyl]amino]propanoic acid] | 160
26 | CC(c1ccc(C(=O)NCCC(=O)O)cc1)n1ncc2cc(-c3ccc(C(C)(C)C)cc3)ccc21 (stereo not drawn) [Compound #68, 3-(4-(1-(5-(4-(tert-Butyl)phenyl)-1H-indazol-1-yl)ethyl)benzamido) propanoic acid] | 2800
27 | CC(C)CC(c1ccc(C(=O)NCCC(=O)O)cc1)n1ncc2cc(-c3ccc(C(F)(F)F)cc3Cl)ccc21 (stereo not drawn) [Compound #41, 3-(4-(1-(5-(2-Chloro-4-(trifluoromethyl)phenyl)-1H-indazol-1-yl)-3-methylbutyl)benzamido)propanoic acid] | 86
28 | Cc1cc2nn(C(CC(C)C)c3ccc(C(=O)NCCC(=O)O)cc3)cc2cc1-c1ccc(C(F)(F)F)cc1 (stereo not drawn) [Compound #134, 3-[[4-[3-Methyl-1-[6-methyl-5-[4-(trifluoromethyl)phenyl]indazol-2-yl]butyl]benzoyl]amino]propanoic acid] | 195
29 | O=C(O)CCNC(=O)c1ccc(C(CCC2CCCCC2)n2cc3cc(-c4ccc(C(F)(F)F)cc4)ccc3n2)cc1 (stereo not drawn) [compound 133] | 92
30 | Cc1cc(C(F)(F)F)ccc1-c1cc2cnn(C(CC(C)C)c3ccc(C(=O)NCCC(=O)O)cc3)c2cc1Cl (stereo not drawn) [Compound #261, 3-[[4-[1-[6-Chloro-5-[2-methyl-4-(trifluoromethyl)phenyl]indazol-1-yl]-3-methyl-butyl]benzoyl]amino]propanoic acid] | 105
31 | CCCCCCC(c1ccc(C(=O)NCCC(=O)O)cc1)n1cc2cc(-c3ccc(C(F)(F)F)cc3)ccc2n1 (stereo not drawn) [Compound #26] | 45
32 | Cc1cc(Cl)ccc1-c1ccc2nn(C(CC(C)(C)C)c3ccc(C(=O)NCCC(=O)O)cc3)cc2c1 (stereo not drawn) [compound 195] | 42
33 | Cc1ccc2cc(-c3ccc4c(cnn4C(CC(C)C)c4ccc(C(=O)NCCC(=O)O)cc4)c3)sc2c1 (stereo not drawn) [compound 62] | 230
34 | CC(C)(F)CC(c1ccc(C(=O)NCCC(=O)O)cc1)n1ncc2cc(-c3ccc(C(F)(F)F)cc3)ccc21 (stereo not drawn) [Compound #185, 3-(4-(3-Fluoro-3-methyl-1-(5-(4-(trifluoromethyl)phenyl)-1H-indazol-1-yl)butyl)benzamido)propanoic acid] | 430
35 | Cc1cc(C(F)(F)F)ccc1-c1ccc2c(cnn2C(CC(C)C)c2ccc(C(=O)NCCC(=O)O)cc2)c1Cl (stereo not drawn) [Compound #135, 3-(4-(1-(4-Chloro-5-(2-methyl-4-(trifluoromethyl)phenyl)-1H-indazol-1-yl)-3-methylbutyl)benzamido)propanoic acid] | 100
36 | Cc1cc2nn(C(CC(C)C)c3ccc(C(=O)NCCC(=O)O)nc3)cc2cc1-c1ccc(C(F)(F)F)cc1Cl (stereo not drawn) [Compound #242, 3-[[5-[1-[5-[2-Chloro-4-(trifluoromethyl)phenyl]-6-methyl-indazol-2-yl]-3-methyl-butyl]pridine-2-carbonyl]amino]propanoic acid] | 65
